Data on two substances can be found in publication PMC6422423, “Constitutively active BRS3 is a genuinely orphan GPCR in placental mammals” (PLoS Biology, 2019).

For one assay, the target named is chicken BRS3 (cBRS3). Briefly: Radioligand binding (competition). Further details: species or system Gallus gallus. The following applies: transfected HEK293 cells, 1 h 21°C, pH 7.4, mean ± SE, at least three experiments. The procedure:
HEK293 cells were seeded in a 10-cm tissue culture dish at a density of 10^6 cells per dish and grown overnight at 37°C in growth medium. The following morning, 5 μg of different species’ BRS3 plasmids were transfected. After 6 h, the medium was replaced with growth medium. Cells were maintained at 37°C in a 5% CO2 atmosphere and used 48 h later for binding assays. The positive control group included transfected GRPR and NMBR; the test group consisted of transfected BRS3 from different species. […] The cell concentration was adjusted to between 0.05 and 4 × 10^6 cells/ml for each receptor such that less than 20% of the total added radioactive ligand was bound during the incubation, and the results were compared to cells transfected with GRPR or NMBR adjusted in concentration to bind a similar amount of ligand. After the incubation, 100 μl aliquots were added to 1.5-ml microfuge tubes, which contained 100 μl of binding buffer to determine the total radioactivity. The bound tracer was separated from unbound tracer by pelleting the cells through the binding buffer by centrifugation at 10,000g in a Microfuge E (Beckman) for 3 min. The supernatant was aspirated, and the pelleted cells were rinsed twice with a washing buffer that contained 1% (w/v) BSA in PBS. The amount of radioactivity bound to the cells was measured in a Cobra II Gamma counter (Packard Instruments). Binding was expressed as the percentage of total radioactivity that was associated with the cell pellet. […] Each point was measured in duplicate, and each experiment was replicated at least four times. […] All the experiment data were calculated using 1 pM ligand-treated as 100% control.

Assay [1] concerns human BRS3 (hBRS3). The experiment in a line: Intracellular calcium assay (WT and mutants). The class given is cell-based. The following applies: 10 nM peptide; for Calcium fold: HEK293, Fluo8, hBRS3; for Intracellular Ca2+, mutants vs wild type (in words): hBRS3 R127Q, S205P, and H294R, each. The procedure: (§1) Intracellular calcium was measured using the non-wash calcium assay Fluo8 kit (ab112129, Abcam) according to the manufacturer’s instructions. Briefly, HEK293 cells were seeded in 24-well plates and were transfected with GRPR, NMBR, BRS3, or the empty vector plasmid pcDNA3.1-V5-His (300 ng) and incubated overnight at 37°C with 5% CO2. The next day, the cells were replated into a 96-well assay plate (black plate and clear bottom). After 12 h, growth media were aspirated, and calcium dye was added. […] The basal fluorescence intensity was recorded 15 times at 1 Hz for […]. The results were normalized to the average basal fluorescence intensity in ratio, and the peak response was used for the result calculation. Calcium fold was calculated using no stimulation data as standard value.

Assay [2] relates to mouse BRS3 (mBRS3). Briefly: Intracellular calcium assay (WT and mutants). The class given is cell-based. The following applies: for Calcium fold: 10 nM peptide, HEK293, Fluo8, mBRS3; for Intracellular Ca2+, mutants (in words): mBRS3 R127Q, S205P, and H294R, all three. The procedure:
as §1
On the technique in general: A change in cytosolic calcium serves as a functional read-out for many receptors and channels.

For assay [3], the system named is aardvark BRS3 (aBRS3). The experiment in a line: Intracellular calcium assay (WT and mutants). The assay is classed as cell-based, Orycteropus afer. The note with it: for Calcium fold: 10 nM peptide, HEK293, Fluo8, aBRS3; for Intracellular Ca2+, mutants (in words): aBRS3 R127Q, S205P, and H294R, all three. On the procedure: as §1
A further assay deals with spotted gar BRS3 (sBRS3). Briefly: Intracellular calcium assay (WT and mutants). The class given is cell-based, Lepisosteus oculatus. The note with it: for Calcium fold: 10 nM peptide, HEK293, Fluo8, sBRS3; for Intracellular Ca2+, mutants (in words): sBRS3 Q127R, P205S, and R294H. The procedure: as §1
In assay [4] the test system is BRS3 receptors in nonplacental vertebrates. Briefly: Intracellular calcium assay, nonplacental pooled. The class given is cell-based, koala, platypus, chicken, turtle, frog, and spotted gar. The following applies: 10 nM peptide, HEK293. The procedure: as §1
The test system of assay [5] is BRS3 receptors in placental mammals. Briefly: Intracellular calcium assay, placental pooled. The following applies: 10 nM peptide, HEK293. The assay is classed as cell-based, human, mouse, dog, and aardvark. On the procedure:
as §1

Assay [6] relates to human BRS3 (hBRS3). Briefly: ERK1/2 phosphorylation (WT and mutants). The class given is cell-based. On the procedure: (§2) For ERK1/2 phosphorylation, HEK293 cells were seeded in 24-well plates and transfected with GRPR, NMBR, BRS3, mutants of different species’ BRS3, or an empty vector plasmid, pcDNA3.1-V5-His plasmid (300 ng). […] Each sample with an equal amount of protein was mixed with 6×SDS sample buffer, boiled for 5 min, and separated on 10% SDS-polyacrylamide gel electrophoresis (PAGE) before transferring the proteins onto a PVDF membrane. The membranes were then blocked at room temperature for 1 h with 5% milk powder in Tris-buffered saline-Tween (TBST), followed by subsequent incubation at 4°C overnight in TBST containing the different primary antibodies (1:1,000 dilution). After washing three times (10 min each time) with TBST, the membranes were incubated for 1 h in TBST containing the secondary antibodies (1:2,000 dilution), followed by washing three times (10 min each time) with TBST, prior to detection by chemiluminescence.

The subject of assay [7] is mouse BRS3 (mBRS3). The experiment in a line: ERK1/2 phosphorylation (WT and mutants). The assay is classed as cell-based. The following applies: mBRS3 R127Q, S205P, and H294R, all three. On the procedure: as §2
Assay [8] deals with aardvark BRS3 (aBRS3). The experiment in a line: ERK1/2 phosphorylation (WT and mutants). The class given is cell-based, Orycteropus afer. The note with it: aBRS3 R127Q, S205P, and H294R, all three. The procedure: as §2

“GSHWAVGHLM-NH2 [GRP, gastrin-releasing peptide]”: the concentration for half-maximal inhibition (IC50) (commonly the point on the concentration scale where inhibition reaches its midpoint) on chicken BRS3 (cBRS3) (50 pM [125I]-Tyr42-GRP) is 0.15 nM; at chicken BRS3 (cBRS3) (50 pM [125I]-Tyr-NMB), 0.18 nM. The Calcium fold in the assay on human BRS3 (hBRS3) [1] (replicate 1) is reported as 1.1274 fold; in the assay with human BRS3 (hBRS3) [1] (replicate 2), 1.2515 fold; in the assay with human BRS3 (hBRS3) [1] (replicate 3) it was 1.1684 fold; in the assay on mouse BRS3 (mBRS3) [2] (replicate 1) it was 1.0113 fold; with mouse BRS3 (mBRS3) [2] (replicate 2), 1.0374 fold; in the assay with mouse BRS3 (mBRS3) [2] (replicate 3), 1.111 fold. The Calcium fold with aardvark BRS3 (aBRS3) [3] (replicate 1) turned out to be 1.0918 fold; with aardvark BRS3 (aBRS3) [3] (replicate 2) it was 1.1902 fold; in the assay with aardvark BRS3 (aBRS3) [3] (replicate 3), 1.2372 fold; in the assay with spotted gar BRS3 (sBRS3) (replicate 1), 4.5257 fold; in the assay on spotted gar BRS3 (sBRS3) (replicate 2), 4.9378 fold; in the assay on spotted gar BRS3 (sBRS3) (replicate 3), 5.3682 fold. Moreover, the “Intracellular Ca2+, mutants vs wild type (in words)” value in the assay with human BRS3 (hBRS3) [1] is reported as “remarkable increase of cellular Ca^2+ ions”. In addition, the “Intracellular Ca2+, mutants (in words)” value with mouse BRS3 (mBRS3) [2] is reported as “significant increase in cellular Ca^2+ ions levels”; with aardvark BRS3 (aBRS3) [3], “significant increase in cellular Ca^2+ ions levels”; with spotted gar BRS3 (sBRS3), “significant effects”. For the same substance, the figures for the “Intracellular Ca2+ (in words)” value in assay [4] and in assay [5] were “remarkable increase of Ca^2+ ions in cells” and “no stimulation was observed”, respectively. Moreover, the “ERK phosphorylation, mutant (in words)” value with human BRS3 (hBRS3) [6] (hBRS3 H294R) was “could be detected”; in the assay on human BRS3 (hBRS3) [6] (hBRS3 R127Q), “could be detected”; in the assay on human BRS3 (hBRS3) [6] (hBRS3 S205P), “the effect is not obvious”. Moreover, the “ERK phosphorylation, mutants (in words)” value in the assay on mouse BRS3 (mBRS3) [7] and in the assay on aardvark BRS3 (aBRS3) [8] was “lead to ERK phosphorylation signal” in each case.
For neuromedin B [NMB], the IC50 on chicken BRS3 (cBRS3) (50 pM [125I]-Tyr42-GRP) worked out at 1.35 nM; on chicken BRS3 (cBRS3) (50 pM [125I]-Tyr-NMB), 2.26 nM. For the same substance, the “Intracellular Ca2+, mutants vs wild type (in words)” value in the assay with human BRS3 (hBRS3) [1] is listed as “remarkable increase of cellular Ca^2+ ions”. Also, the entries for the “Intracellular Ca2+, mutants (in words)” value with mouse BRS3 (mBRS3) [2], in the assay with aardvark BRS3 (aBRS3) [3] and in the assay with spotted gar BRS3 (sBRS3) were “significant increase in cellular Ca^2+ ions levels”, “significant increase in cellular Ca^2+ ions levels” and “significant effects”, respectively. For the same substance, the “Intracellular Ca2+ (in words)” value is recorded as “remarkable increase of Ca^2+ ions in cells” in assay [4] and “no stimulation was observed” in [5]. For the same substance, the “ERK phosphorylation, mutant (in words)” value was “could be detected” with human BRS3 (hBRS3) [6] (hBRS3 H294R), “could be detected” in the assay with human BRS3 (hBRS3) [6] (hBRS3 R127Q) and “the effect is not obvious” with human BRS3 (hBRS3) [6] (hBRS3 S205P). Moreover, the “ERK phosphorylation, mutants (in words)” value in the assay with mouse BRS3 (mBRS3) [7] and with aardvark BRS3 (aBRS3) [8] was “lead to ERK phosphorylation signal” throughout.
